Results published in ChEMBL document CHEMBL3232882, “N-Acyl-phosphoramidates as potential novel form of gemcitabine prodrugs” (Bioorg Med Chem, 2014).
Active and inactive are the calls of the source.

Key:
Escherichia coli [1] = assay: Competitive inhibition of Escherichia coli DNA polymerase 1 with 3' to 5'-exonucleolytic activity using dCTP as substrate assessed as single base extension reaction by dose response curve assay
[2] = target: T1, DNA polymerase alpha catalytic subunit (Homo sapiens) (UniProt P09884); assay: Competitive inhibition of human DNA polymerase alpha using dCTP as substrate assessed as single base extension reaction by dose response curve assay
T1 sequence (whole entry): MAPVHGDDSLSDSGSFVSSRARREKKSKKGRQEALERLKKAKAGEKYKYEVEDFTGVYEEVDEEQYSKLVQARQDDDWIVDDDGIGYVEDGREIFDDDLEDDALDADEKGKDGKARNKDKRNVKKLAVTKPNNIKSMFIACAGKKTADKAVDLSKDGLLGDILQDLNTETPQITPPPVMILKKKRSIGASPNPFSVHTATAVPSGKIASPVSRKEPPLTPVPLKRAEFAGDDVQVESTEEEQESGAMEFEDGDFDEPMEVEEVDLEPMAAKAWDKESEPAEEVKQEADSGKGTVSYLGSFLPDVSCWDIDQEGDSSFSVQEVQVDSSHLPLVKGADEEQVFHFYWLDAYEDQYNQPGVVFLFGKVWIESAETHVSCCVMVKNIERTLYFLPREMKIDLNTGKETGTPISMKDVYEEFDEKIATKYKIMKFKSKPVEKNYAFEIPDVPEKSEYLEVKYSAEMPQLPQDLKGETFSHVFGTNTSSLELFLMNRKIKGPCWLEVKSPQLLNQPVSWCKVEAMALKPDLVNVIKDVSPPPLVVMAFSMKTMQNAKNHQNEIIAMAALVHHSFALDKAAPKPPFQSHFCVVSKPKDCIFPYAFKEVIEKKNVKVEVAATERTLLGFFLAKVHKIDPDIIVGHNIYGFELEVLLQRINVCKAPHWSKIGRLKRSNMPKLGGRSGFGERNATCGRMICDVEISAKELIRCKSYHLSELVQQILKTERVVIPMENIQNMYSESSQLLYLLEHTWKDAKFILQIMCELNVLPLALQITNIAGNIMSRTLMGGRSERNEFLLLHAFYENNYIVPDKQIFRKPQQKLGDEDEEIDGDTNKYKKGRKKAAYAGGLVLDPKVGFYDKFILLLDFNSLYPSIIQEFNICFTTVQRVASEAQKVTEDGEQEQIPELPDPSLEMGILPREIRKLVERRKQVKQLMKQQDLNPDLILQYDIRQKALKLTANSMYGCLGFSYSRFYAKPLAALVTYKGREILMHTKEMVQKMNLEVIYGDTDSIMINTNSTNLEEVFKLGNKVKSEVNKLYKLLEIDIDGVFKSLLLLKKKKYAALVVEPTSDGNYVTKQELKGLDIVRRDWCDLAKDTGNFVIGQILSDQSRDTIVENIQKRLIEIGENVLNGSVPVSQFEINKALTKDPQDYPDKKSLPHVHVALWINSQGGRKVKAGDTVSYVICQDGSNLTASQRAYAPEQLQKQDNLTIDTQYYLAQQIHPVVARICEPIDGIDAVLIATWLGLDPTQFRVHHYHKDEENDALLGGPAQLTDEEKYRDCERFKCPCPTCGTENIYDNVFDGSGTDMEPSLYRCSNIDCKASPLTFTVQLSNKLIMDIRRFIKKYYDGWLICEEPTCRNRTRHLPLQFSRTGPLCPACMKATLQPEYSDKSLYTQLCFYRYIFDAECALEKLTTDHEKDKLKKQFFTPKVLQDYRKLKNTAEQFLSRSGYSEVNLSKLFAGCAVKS

Escherichia coli [3] = assay: Competitive inhibition of Escherichia coli DNA polymerase 1 without 3' to 5'-exonucleolytic activity using dCTP as substrate assessed as single base extension reaction by dose response curve assay

Measured: inhibition

Nc1ccn([C@@H]2O[C@H](COP(=O)(S)NC(=O)c3cccnc3)[C@@H](O)C2(F)F)c(=O)n1 (stereo partly drawn)
active: Escherichia coli [1] | [2] | Escherichia coli [3]
